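How tested: cells in 96-well plates exposed to compound for 48 hours at five concentrations. GI50 = concentration required for 50% inhibition of growth.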 The source made the active and inactive calls. Rule as the data show it: active = GI50 up to about 1.1 µM and inactive = higher.
Assays:
Assay in all cases: NCI tumour cell line growth inhibition, 48 h
EKVX = test system: EKVX
SF-539 = test system: SF-539
CCRF-CEM = test system: CCRF-CEM
SN12C = test system: SN12C
SR = test system: SR
ACHN = test system: ACHN
A498 = test system: A498
NCI-H23 = test system: NCI-H23
M14 = test system: M14
TK-10 = test system: TK-10
HCT-116 = test system: HCT-116
HCC 2998 = test system: HCC 2998
SNB-19 = test system: SNB-19
SNB-75 = test system: SNB-75
OVCAR-8 = test system: OVCAR-8

SMILES	GI50 (EKVX)	GI50 (SF-539)	GI50 (CCRF-CEM)	GI50 (SN12C)	GI50 (SR)	GI50 (ACHN)	GI50 (A498)	GI50 (NCI-H23)	GI50 (M14)	GI50 (TK-10)	GI50 (HCT-116)	GI50 (HCC 2998)	GI50 (SNB-19)	GI50 (SNB-75)	GI50 (OVCAR-8)
N#CC1(Cc2ccccc2)CCCCN1C(=O)c1ccccc1 (stereo not given)	> 100 µM (inactive)	> 100 µM (inactive)	> 100 µM (inactive)	> 100 µM (inactive)	44.7 µM (inactive)	> 100 µM (inactive)	> 100 µM (inactive)	> 100 µM (inactive)	> 100 µM (inactive)	> 100 µM (inactive)	> 100 µM (inactive)	> 100 µM (inactive)	> 100 µM (inactive)	> 100 µM (inactive)	> 100 µM (inactive)
CC1OC(n2cc(F)c(=O)[nH]c2=O)C=CC1=O (stereo not given)	–	16.4 µM (inactive)	13.8 µM (inactive)	16.4 µM (inactive)	21.5 µM (inactive)	18 µM (inactive)	16.7 µM (inactive)	83 µM (inactive)	17.5 µM (inactive)	17 µM (inactive)	16.3 µM (inactive)	17.8 µM (inactive)	17.4 µM (inactive)	17.9 µM (inactive)	20.7 µM (inactive)
C=CCCOC(=O)CO[N+](=O)[O-]	> 100 µM (inactive)	> 100 µM (inactive)	> 100 µM (inactive)	> 100 µM (inactive)	> 100 µM (inactive)	> 100 µM (inactive)	–	> 100 µM (inactive)	> 100 µM (inactive)	> 100 µM (inactive)	> 100 µM (inactive)	> 100 µM (inactive)	> 100 µM (inactive)	> 100 µM (inactive)	> 100 µM (inactive)
CO/N=C/c1cc(OC)c(OC)c(OC)c1	> 100 µM (inactive)	> 100 µM (inactive)	> 100 µM (inactive)	> 100 µM (inactive)	> 100 µM (inactive)	> 100 µM (inactive)	> 100 µM (inactive)	> 100 µM (inactive)	> 100 µM (inactive)	> 100 µM (inactive)	> 100 µM (inactive)	> 100 µM (inactive)	> 100 µM (inactive)	> 100 µM (inactive)	> 100 µM (inactive)
COc1cc(OC)cc(N2CCC(c3c(N)nc(N)nc3Cl)CC2)c1	95.3 µM (inactive)	–	47.1 µM (inactive)	> 100 µM (inactive)	–	70.5 µM (inactive)	–	> 100 µM (inactive)	75.3 µM (inactive)	> 100 µM (inactive)	–	67.5 µM (inactive)	> 100 µM (inactive)	47.6 µM (inactive)	> 100 µM (inactive)
C=CC1[C@H]2COC(C)(C)O[C@@H]2CC(=O)C1(C)C (stereo not given in full)	54.2 µM (inactive)	> 100 µM (inactive)	–	> 100 µM (inactive)	–	94 µM (inactive)	–	> 100 µM (inactive)	> 100 µM (inactive)	> 100 µM (inactive)	> 100 µM (inactive)	> 100 µM (inactive)	> 100 µM (inactive)	> 100 µM (inactive)	> 100 µM (inactive)
COc1ccc(-c2cc(O)c3cc4c(cc3n2)OCO4)cc1	19.9 µM (inactive)	> 100 µM (inactive)	> 100 µM (inactive)	> 100 µM (inactive)	> 100 µM (inactive)	> 100 µM (inactive)	> 100 µM (inactive)	> 100 µM (inactive)	> 100 µM (inactive)	> 100 µM (inactive)	> 100 µM (inactive)	> 100 µM (inactive)	55.5 µM (inactive)	29.8 µM (inactive)	> 100 µM (inactive)
CCNC(=O)OCc1c(COC(=O)NCC)c(-c2ccc(Cl)c(Cl)c2)n2c1CCC2	–	11.5 µM (inactive)	4.09 µM (inactive)	–	3.21 µM (inactive)	4.88 µM (inactive)	–	8.05 µM (inactive)	11.1 µM (inactive)	10.9 µM (inactive)	9.4 µM (inactive)	14.3 µM (inactive)	21.5 µM (inactive)	11.1 µM (inactive)	12.6 µM (inactive)
C[C@@H]1C[C@H]2[C@@H]3CCC4=CC(=O)C=C[C@]4(C)[C@@]3(F)[C@@H](O)C[C@]2(C)[C@@]1(O)C(=O)CO [DEXAMETHASONE]	83.6 µM (inactive)	–	0.0239 µM (active)	< 0.01 µM (active)	49.3 µM (inactive)	> 100 µM (inactive)	–	> 100 µM (inactive)	> 100 µM (inactive)	> 100 µM (inactive)	> 100 µM (inactive)	–	–	–	> 100 µM (inactive)
NC1=NC(c2ccccc2)CC(c2cc(Cl)ccc2O)=N1 (stereo not given)	15.3 µM (inactive)	15 µM (inactive)	22.1 µM (inactive)	13.6 µM (inactive)	15.8 µM (inactive)	15.3 µM (inactive)	20.1 µM (inactive)	15.5 µM (inactive)	16.9 µM (inactive)	25.1 µM (inactive)	14 µM (inactive)	15.9 µM (inactive)	16.7 µM (inactive)	17.7 µM (inactive)	16.2 µM (inactive)
Cc1cc2c(=O)c3ccccc3[nH]c2c(C(N)=O)c1C	> 100 µM (inactive)	> 100 µM (inactive)	> 100 µM (inactive)	> 100 µM (inactive)	–	> 100 µM (inactive)	–	> 100 µM (inactive)	> 100 µM (inactive)	> 100 µM (inactive)	> 100 µM (inactive)	–	> 100 µM (inactive)	> 100 µM (inactive)	> 100 µM (inactive)
CCOC(=O)[C@H](Cc1ccccc1)NC(=O)c1nc[nH]c1[N+](=O)[O-]	> 100 µM (inactive)	> 100 µM (inactive)	> 100 µM (inactive)	> 100 µM (inactive)	> 100 µM (inactive)	> 100 µM (inactive)	> 100 µM (inactive)	> 100 µM (inactive)	> 100 µM (inactive)	> 100 µM (inactive)	> 100 µM (inactive)	> 100 µM (inactive)	> 100 µM (inactive)	> 100 µM (inactive)	> 100 µM (inactive)
CC(N)Cc1ccc(F)cc1 (stereo not given)	> 100 µM (inactive)	> 100 µM (inactive)	> 100 µM (inactive)	> 100 µM (inactive)	> 100 µM (inactive)	> 100 µM (inactive)	> 100 µM (inactive)	> 100 µM (inactive)	> 100 µM (inactive)	> 100 µM (inactive)	> 100 µM (inactive)	> 100 µM (inactive)	> 100 µM (inactive)	> 100 µM (inactive)	> 100 µM (inactive)
Cc1ccc(C2=Nc3ccccc3NC(=O)C2)cc1	> 100 µM (inactive)	> 100 µM (inactive)	38 µM (inactive)	> 100 µM (inactive)	> 100 µM (inactive)	> 100 µM (inactive)	> 100 µM (inactive)	> 100 µM (inactive)	> 100 µM (inactive)	> 100 µM (inactive)	> 100 µM (inactive)	> 100 µM (inactive)	> 100 µM (inactive)	43.8 µM (inactive)	79.8 µM (inactive)
COC(=O)C(Cc1nc2ccccc2nc1O)/C(=N\NC(C)(C)C)C(=O)Nc1c(C)cc(Br)cc1C (stereo not given)	36.4 µM (inactive)	19.9 µM (inactive)	17.8 µM (inactive)	42.7 µM (inactive)	20.5 µM (inactive)	32.9 µM (inactive)	12.7 µM (inactive)	25.2 µM (inactive)	21.8 µM (inactive)	–	18.6 µM (inactive)	73.1 µM (inactive)	31.1 µM (inactive)	–	21.9 µM (inactive)
CCOC(=O)CP(=S)(S)c1ccccc1 (stereo not given)	> 100 µM (inactive)	> 100 µM (inactive)	> 100 µM (inactive)	> 100 µM (inactive)	> 100 µM (inactive)	> 100 µM (inactive)	> 100 µM (inactive)	> 100 µM (inactive)	–	> 100 µM (inactive)	–	–	> 100 µM (inactive)	–	> 100 µM (inactive)
O=C1N=C2N=C(c3ccc(Cl)cc3)N(c3ccc(Cl)cc3)N2Sc2ccccc21	> 100 µM (inactive)	> 100 µM (inactive)	> 100 µM (inactive)	> 100 µM (inactive)	–	> 100 µM (inactive)	> 100 µM (inactive)	> 100 µM (inactive)	> 100 µM (inactive)	> 100 µM (inactive)	> 100 µM (inactive)	> 100 µM (inactive)	47.2 µM (inactive)	> 100 µM (inactive)	> 100 µM (inactive)
C=C1C(=O)O[C@H]2C[C@@H](C)[C@@H]3CC(=O)OC[C@@]3(C)CC12 (stereo not given in full)	27.5 µM (inactive)	21.9 µM (inactive)	12.9 µM (inactive)	21.6 µM (inactive)	–	21.7 µM (inactive)	–	23.3 µM (inactive)	14.4 µM (inactive)	22.8 µM (inactive)	21 µM (inactive)	32.1 µM (inactive)	53.1 µM (inactive)	30.1 µM (inactive)	17.9 µM (inactive)
COc1ccc(/C=C2\Cc3ccccc3C2=O)cc1OC	> 100 µM (inactive)	–	> 100 µM (inactive)	> 100 µM (inactive)	–	> 100 µM (inactive)	> 100 µM (inactive)	91.6 µM (inactive)	> 100 µM (inactive)	> 100 µM (inactive)	–	> 100 µM (inactive)	> 100 µM (inactive)	> 10 µM (inactive)	> 100 µM (inactive)
CC(C)=CCC/C(C)=C/CC/C(C)=C/CCC1(C)CCC([C@H](C)C(=O)O)OO1.CC1=C(CC/C(C)=C/CCC2(C)CCC([C@H](C)C(=O)O)OO2)C(C)(C)CCC1 (stereo not given in full)	> 100 µM (inactive)	> 100 µM (inactive)	–	> 100 µM (inactive)	–	> 100 µM (inactive)	–	> 100 µM (inactive)	> 100 µM (inactive)	> 100 µM (inactive)	> 100 µM (inactive)	85.3 µM (inactive)	> 100 µM (inactive)	> 100 µM (inactive)	> 100 µM (inactive)

From ChEMBL document CHEMBL1201862, “PubChem BioAssay data set” (2004)
